pKi: −log10 of the molar value.

The term pKi denotes −log10 of the Ki, conventionally taken in molar units.

Sequence of tau (P10636 2-758 limits assumed): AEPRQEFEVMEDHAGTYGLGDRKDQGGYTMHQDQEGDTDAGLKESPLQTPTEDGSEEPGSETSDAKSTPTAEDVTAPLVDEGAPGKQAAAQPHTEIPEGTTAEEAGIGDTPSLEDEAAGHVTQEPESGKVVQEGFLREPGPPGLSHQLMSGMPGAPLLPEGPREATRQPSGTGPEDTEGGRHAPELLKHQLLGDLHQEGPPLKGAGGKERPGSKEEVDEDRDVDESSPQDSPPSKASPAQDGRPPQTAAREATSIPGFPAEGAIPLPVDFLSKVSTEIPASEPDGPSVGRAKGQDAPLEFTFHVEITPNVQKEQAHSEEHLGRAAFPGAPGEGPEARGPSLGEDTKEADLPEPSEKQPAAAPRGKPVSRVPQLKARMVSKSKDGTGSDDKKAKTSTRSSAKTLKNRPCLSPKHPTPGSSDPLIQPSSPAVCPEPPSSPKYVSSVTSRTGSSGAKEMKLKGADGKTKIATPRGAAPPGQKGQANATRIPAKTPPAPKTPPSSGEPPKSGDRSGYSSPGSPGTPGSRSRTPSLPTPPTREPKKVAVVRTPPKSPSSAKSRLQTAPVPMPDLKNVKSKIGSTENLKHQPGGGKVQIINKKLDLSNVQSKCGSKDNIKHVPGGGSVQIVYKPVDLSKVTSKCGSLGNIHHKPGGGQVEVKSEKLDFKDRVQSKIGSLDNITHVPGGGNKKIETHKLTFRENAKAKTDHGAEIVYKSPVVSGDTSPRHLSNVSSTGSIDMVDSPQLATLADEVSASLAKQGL

The target of the first assay is tau (Homo sapiens, UniProt P10636). Put plainly: displacement tau binding assay in AD brain homogenates with [^3H]-6. The conditions noted are these: Table 1, displacement of [^3H]-6 (0.25 nM). The protocol:
The frozen human brain samples of Alzheimer's disease (AD) were purchased from Analytic Biological Services Inc. They were postmortem tissue from donors with clinical diagnosis of AD. As much of the white matter was dissected out of the frontal cortex in order to enrich the tissue preparations for gray matter. Brain homogenates of gray matter enriched frontal cortex were prepared by homogenizing the tissue in ice cold Phosphate Buffered Saline (PBS), pH 7.4 at 80 mg wet weight tissue per 1 mL for 45 seconds at 4° C. on setting 16 of Polytron. The homogenate was further diluted with ice cold PBS to 30 mg wet weight tissue per 1 mL and homogenized for an additional minute as described above. Homogenates were aliquoted in 5 ml/tube and store at −70° C. until use. […] Brain homogenates were diluted to 0.5 mg/mL from original 30 mg/mL volume in Assay Buffer, and 200 μl were added to the assay plate for a final concentration of 100 μg wet weight/assay tube. [^3H]-6 was prepared at […] final concentration in Assay Buffer plus 20% DMSO and 25 μl was added to the assay plate for final assay concentration of 0.25 nM. The assay plate was incubated at room temperature (25° C.) for 90 minutes. […] Filter plates were dried for 1 hour in a vacuum oven and 50 μl/well MicroScint-20 were added. Plates were counted 1 min per well by Packard Topcount. Total amount of radioligand used in the assay was determined by counting 25 μl of 10× ligand stock. […] Tau Ki data for representative compounds of the invention are found in Table 1.
The molecule `Fc1cc(-c2ccc(-n3ccc4ccncc43)nc2)ccn1` [Compound 44, 1-(6′-fluoro-3,4′-bipyridin-6-yl)-1H-pyrrolo[2,3-c]pyridine] had a negative-log Ki (pKi) of 8.95.
The molecule `COc1ccc2nc(-n3ccc4ccncc43)ncc2c1` [Compound 24-4, 6-methoxy-2-(1H-pyrrolo[2,3-c]pyridin-1-yl)quinazoline] gave a pKi of 8.81.
The molecule `CNc1cc(-c2ccc(-n3ccc4ccncc43)nc2)ccn1` [Compound 93] had a negative logarithm of the Ki (pKi) of 9.28.
The molecule `CC#Cc1cnc(-n2ccc3ccncc32)cc1CO` [Compound 21-4, (5-(prop-1-ynyl)-2-(1H-pyrrolo[2,3-c]pyridin-1-yl)pyridin-4-yl)methanol] had a pKi of 8.47.
`FCOc1ccc2cnc(-n3ccc4ccncc43)cc2c1` [Compound 57]: the pKi was 8.91.
On the same count and under the same terms, in the case of `Ic1ccc2cnc(-n3ccc4ccncc43)cc2c1` [Compound 20, 6-iodo-3-(1H-pyrrolo[2,3-c]pyridin-1-yl)isoquinoline] it was 9.12; in that of `FCCOc1ccc2nc(-n3ccc4ccncc43)ncc2c1` [Compound 69], 8.03.
As to `Cc1cc(-n2ccc3ccncc32)ncc1C#CCF` [Compound 51], the negative logarithm of the Ki (pKi) was 9.06.
Same read-out and setting: in the case of `Fc1ccc(-c2ccc(-n3ccc4ccncc43)nc2)cn1` [Compound 60] it was 8.69; in that of `Fc1ccc2cnc(-n3ccc4ccncc43)cc2n1` [Compound 40, 2-fluoro-7-(1H-pyrrolo[2,3-c]pyridin-1-yl)-1,6-naphthyridine], 7.28; in that of `Fc1cccc2cnc(-n3ccc4ccncc43)cc12` [Compound 54], 8.98.
Same read-out and setting: in the case of `Nc1cccc2cc(-n3ccc4ccncc43)ncc12` [Compound 59] it was 9.48; in that of `Fc1nc(-n2ccc3ccncc32)ccc1-c1cccnc1` [Compound 37, 1-(2-fluoro-3,3′-bipyridin-6-yl)-1H-pyrrolo[2,3-c]pyridine], 7.71; in that of `FCOc1ccc2cc(-n3ccc4ccncc43)ncc2c1` [Compound 17, 7-(fluoromethoxy)-3-(1H-pyrrolo[2,3-c]pyridin-1-yl)isoquinoline], 9.37.
Regarding `FCCn1ccc(-c2ccc(-n3ccc4ccncc43)nc2)n1` [Compound 104, 1-(5-(1-(2-fluoroethyl)-1H-pyrazol-3-yl)pyridin-2-yl)-1H-pyrrolo[2,3-c]pyridine], the pKi was 8.77.
On the same count and under the same terms, in the case of `Nc1ccc(-c2ccc(-n3ccc4ccncc43)nc2)cn1` [Compound 100] it was 8.97.
`Cn1ccc(-c2ccc(-n3ccc4ccncc43)nc2)n1` [Compound 63]: the pKi was 8.55.
The same measure, in the same setting: then `CN(C)c1ccc(-c2ccc(-n3ccc4ccncc43)nc2)cn1` [Compound 95], with 9.02; and `Oc1cccc2cc(-n3ccc4ccncc43)ncc12` [Compound 56], with 8.94; and `Nc1cccc2cnc(-n3ccc4ccncc43)cc12` [Compound 11-5, 3-(1H-pyrrolo[2,3-c]pyridin-1-yl)isoquinolin-5-amine], with 9.40.
In the case of `Nc1cc(-c2ccc(-n3ccc4ccncc43)nc2)ccn1` [Compound 99], the negative logarithm of the Ki (pKi) was 9.26.
Still for that read-out and setting: then `c1cc2ccn(-c3cc4cc[nH]c4cn3)c2cn1` [Compound 8, 1-(1H-pyrrolo[2,3-c]pyridin-5-yl)-1H-pyrrolo[2,3-c]pyridine], with 9.32.
Take `Cn1cnc(-c2ccc(-n3ccc4ccncc43)nc2)c1` [Compound 65]: the pKi was 8.47.
With `CN(CCF)c1ccc2cnc(-n3ccc4ccncc43)cc2c1` [Compound 14, N-(2-fluoroethyl)-N-methyl-3-(1H-pyrrolo[2,3-c]pyridin-1-yl)isoquinolin-6-amine], the pKi was 8.64.
The same measure, in the same setting: then `FCOc1ccc2nc(-n3ccc4ccncc43)ncc2c1` [Compound 24, 6-(fluoromethoxy)-2-(1H-pyrrolo[2,3-c]pyridin-1-yl)quinazoline], with 7.89.
The molecule `Oc1ccc2cnc(-n3ccc4ccncc43)cc2c1` [Compound 75] had a negative logarithm of the Ki (pKi) of 9.32.
In turn, `CN(CCO)c1ccc2cnc(-n3ccc4ccncc43)cc2c1` [Compound 66] showed a pKi of 8.39.
Still for that read-out and setting: in the case of `CC#Cc1cnc(-n2ccc3ccncc32)cc1OC` [Compound 33, 1-(4-methoxy-5-(prop-1-ynyl)pyridin-2-yl)-1H-pyrrolo[2,3-c]pyridine] it was 8.48.
Still for that read-out and setting: in the case of `COc1ccc(NC(=O)c2ccc(-n3ccc4ccncc43)nc2)cc1` [Compound 34, N-(4-methoxyphenyl)-6-(1H-pyrrolo[2,3-c]pyridin-1-yl)nicotinamide] it was 8.42; in that of `FCCOc1ccc2cc(-n3ccc4ccncc43)ncc2c1` [Compound 16, 7-(2-fluoroethoxy)-3-(1H-pyrrolo[2,3-c]pyridin-1-yl)isoquinoline], 9.39; in that of `Fc1ccc2nc(-n3ccc4ccncc43)ncc2c1` [Compound 62], 8.59.
In the case of `FCOc1cccc2cc(-n3ccc4ccncc43)ncc12` [Compound 55], the pKi was 8.94.
Regarding `CC#Cc1cnc(-n2ccc3ccncc32)cc1F` [Compound 22, 1-(4-fluoro-5-(prop-1-ynyl)pyridin-2-yl)-1H-pyrrolo[2,3-c]pyridine], the negative-log Ki (pKi) was 8.84.
Molecule `COc1ccc2cc(-n3ccc4ccncc43)ncc2c1` [Compound 13, 7-methoxy-3-(1H-pyrrolo[2,3-c]pyridin-1-yl)isoquinoline] gave a pKi of 9.54.
For the molecule `c1ccc(-c2ccc(-n3ccc4ccncc43)nc2)nc1` [Compound 101], the pKi was 8.94.
Molecule `COc1cccc2cc(-n3ccc4ccncc43)ncc12` [Compound 103] gave a pKi of 9.49.
Still for that read-out and setting: in the case of `FCCOc1cccc2cnc(-n3ccc4ccncc43)cc12` [Compound 71] it was 6.76; in that of `Oc1ccc2cc(-n3ccc4ccncc43)ncc2c1` [Compound 15, 3-(1H-pyrrolo[2,3-c]pyridin-1-yl)isoquinolin-7-ol], 9.28.
Molecule `CCNc1cc(-c2ccc(-n3ccc4ccncc43)nc2)ccn1` [Compound 94] had a pKi of 8.85.
Turning to `C=Cc1cc(-n2ccc3ccncc32)ncc1C#CCF` [Compound 30, 1-(5-(3-fluoroprop-1-ynyl)-4-vinylpyridin-2-yl)-1H-pyrrolo[2,3-c]pyridine], the negative-log Ki (pKi) is 8.61.
Molecule `c1cc(-c2ccc(-n3ccc4ccncc43)nc2)ncn1` [Compound 46, 1-(5-(pyrimidin-4-yl)pyridin-2-yl)-1H-pyrrolo[2,3-c]pyridine] gave a pKi of 8.66.
Take `Fc1ccc2cnc(-n3ccc4ccncc43)cc2c1` [Compound 9, 6-fluoro-3-(1H-pyrrolo[2,3-c]pyridin-1-yl)isoquinoline]: the pKi is 9.66.
In turn, `OC1CCN(c2ccc(-n3ccc4ccncc43)nc2)CC1` [Compound 42, 1-(6-(1H-pyrrolo[2,3-c]pyridin-1-yl)pyridin-3-yl)piperidin-4-ol] gave a pKi of 7.15.
As for `Oc1cccc2cnc(-n3ccc4ccncc43)cc12` [Compound 49], the negative logarithm of the Ki (pKi) was 9.17.
The molecule `C#Cc1cnc(-n2ccc3ccncc32)cc1C` [Compound 50] gave a pKi of 9.12.
On the same count and under the same terms, in the case of `c1ccc2cc(-n3ccc4ccncc43)ncc2c1` [Compound 6, 3-(1H-pyrrolo[2,3-c]pyridin-1-yl)isoquinoline] it was 9.27.

The same assay, now with this note: Table 2, displacement of [^3H]-6 (0.25 nM).
In turn, `Nc1cc(F)c2cnc(-n3ccc4ccncc43)cc2c1` [Compound 113] gave a negative-log Ki (pKi) of 9.11.
On to `Nc1cc(F)c2cc(-n3ccc4ccncc43)ncc2c1` [Compound 114], for which the negative-log Ki (pKi) is 9.31.
As for `Nc1cc(I)c2cc(-n3ccc4ccncc43)ncc2c1` [Compound 128], the negative-log Ki (pKi) was 8.21.
Take `Nc1cc2cc(-n3ccc4ccncc43)ncc2cc1I` [Compound 126]: the pKi is 9.75.
For `Nc1cc2cc(-n3ccc4ccncc43)ncc2cc1F` [Compound 109], the pKi is 9.37.
On the same count and under the same terms, in the case of `Nc1cc(F)cc2cnc(-n3ccc4ccncc43)cc12` [Compound 115] it was 9.65; in that of `Nc1ccc(F)c2cc(-n3ccc4ccncc43)ncc12` [Compound 117], 8.70.
Still for that read-out and setting: in the case of `Nc1ccc2cnc(-n3ccc4ccncc43)cc2c1I` [Compound 118] it was 7.61; in that of `Nc1c(F)ccc2cc(-n3ccc4ccncc43)ncc12` [Compound 110], 8.67.
The same measure, in the same setting: in the case of `Nc1ccc2cc(-n3ccc4ccncc43)ncc2c1F` [Compound 108] it was 9.17; in that of `Nc1ccc2cnc(-n3ccc4ccncc43)cc2c1F` [Compound 111], 8.96.
`Nc1cccc2cnc(-n3ccc4ccnc(F)c43)cc12` [Compound 107] showed a pKi of 5.00.
Take `Nc1cc(I)cc2cnc(-n3ccc4ccncc43)cc12` [Compound 127]: the pKi is 8.93.
Molecule `Nc1cc(I)cc2cc(-n3ccc4ccncc43)ncc12` [Compound 124] showed a negative-log Ki (pKi) of 8.97.
With `Nc1cc(I)c2cnc(-n3ccc4ccncc43)cc2c1` [Compound 125], the negative-log Ki (pKi) was 7.73.
Still for that read-out and setting: then `Nc1ccc(I)c2cnc(-n3ccc4ccncc43)cc12` [Compound 123], with 6.68; and `Nc1ccc2cc(-n3ccc4ccncc43)ncc2c1I` [Compound 122], with 8.75.
The molecule `Nc1cc(F)cc2cc(-n3ccc4ccncc43)ncc12` [Compound 112] gave a pKi of 9.17.
